Measured values taken from patent US5834463A, “Condensed heterocyclic compounds, their production and use” (Takeda Chemical Industries, Ltd., priority 1994, dated 1998).

Key:
[1] = tested on: ethanol-induced sleep in mice; test: Effects on ethanol-induced sleep in mice; type: in vivo, ICR male mice; conditions: 30 mg/kg orally, 30 minutes before 25% ethanol i.p.; 8 animals
Experimental: (F) Effects on ethanol-induced sleep in mice
ICR male mice of 4-5 week old were orally administered with test compounds suspended in a physiological saline solution or 5% gum arabic solution at a dosage of 30 mg/kg (8 animals in each group). Thirty minutes later, test animals were intrapritoneally injected with 25% ethanol (0.2 mL/10 g). The duration of sleep was measured as the time from the onset of righting reflex until the righting reflex was regained.

[2] = tested on: pentobarbital-induced sleep in mice; test: Effect on pentobarbital-induced sleep in mice; type: in vivo, ICR male mice; conditions: 30 minutes before sodium pentobarbital 55 mg/kg i.p.
Experimental: (G) Effect on pentobarbital-induced sleep in mice
ICR male mice of 5-6 week old were orally administered with test samples dissolved or suspended in a physiological saline solution or 5% gum solution dosage of 100 mg/kg (2-3 animals in each group), and behavioral observation was conducted at 15, 30, 60 and 120 minutes after the administration.
As the next stage, ICR male mice of 4-5 week old were orally administered with test samples dissolved or suspended in a physiological saline solution or 5% gum arabic solution at a dosage which was one rank lower than the dosage determined as above (8 animals in each group). Thirty minutes after the administration, test animals were administered intraperitoneally with sodium pentobarbital at a dosage of 55 mg/kg. The duration of sleep was measured as the time from the onset of righting reflex until the righting reflex was regained.

[3] = target: T1, human GnRH receptor (Homo sapiens, UniProt P30968); test: Test for inhibition of ^125 I-leuprorelin binding to human GnRH receptor; conditions: membrane fraction of CHO cells expressing human GnRH receptors, 25° C., 60 minutes, read-out: Binding Inhibitory Activity (IC50, μM) for human GnRH receptor
T1 construct: expressed in transfected cells; host or cells: CHO (Chinese Hamster Ovary) cells, membrane fraction
T1 sequence (P30968 1-328): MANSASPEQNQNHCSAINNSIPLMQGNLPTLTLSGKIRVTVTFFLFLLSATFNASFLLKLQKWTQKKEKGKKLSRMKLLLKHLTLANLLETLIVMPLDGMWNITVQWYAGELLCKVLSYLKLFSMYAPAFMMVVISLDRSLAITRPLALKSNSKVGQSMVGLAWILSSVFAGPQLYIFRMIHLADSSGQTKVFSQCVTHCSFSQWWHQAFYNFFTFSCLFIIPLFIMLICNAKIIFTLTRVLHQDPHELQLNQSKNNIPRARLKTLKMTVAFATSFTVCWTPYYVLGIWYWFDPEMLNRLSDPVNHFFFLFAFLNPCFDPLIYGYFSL
Experimental: (A) Preparation of ^125 I-leuprorelin
Ten μl of a 3×10^-4 M aqueous solution of leuprorelin and 10μl of 0.01 mg/ml lactoperoxidase in 0.1M Hepes buffer (pH7.4) were put in a tube, to which was added 10 μl of an Na^125 I solution (37 MBq). The mixture was stirred, to which was added 10 μl of 0.001% H2 O2, followed by allowing the reaction to proceed for 20 minutes at room temperature. To the reaction mixture was added 700 μl of a 0.05% TFA solution to stop the reaction. The product of was purified by means of a reverse-phase HPLC. Conditions of HPLC were as follows:
(D) Preparation of membrane fraction of CHO (Chinese Hamster Ovary) cells containing human GnRH receptors
CHO cells (10^9) expressing human GnRH receptors were suspended in a phosphate-buffered saline supplemented with 5 mM EDTA. The suspension was subjected to centrifugal separation for 5 minutes at 100×g. To the pellet of cells was added 10 ml of a homogenate buffer for cells (10 mM NaHCO3, 5 mM EDTA, pH 7.5), which was homogenated by using a Polytron homogenizer. Centrifugal separation was conducted for 15 minutes at 400×g. The supernatant was taken into an ultracentrifugal tube, which was subjected to centrifuge for one hour at 100,000×g to give precipitate of the membrane fraction. The precipitate was suspended in 2 ml of the assay buffer, which was centrifuged for one hour at 100,000×g. The membrane fraction recovered as precipitate was again suspended in 20 ml of the assay buffer, which was distributed to vials and stored at -80° C. until used.
(E) Determination of inhibitory rate of ^125 I-leuprorelin binding
In the cases of using rat and human pituitary membrane fractions prepared in (B) and (D), they were respectively diluted with the assay buffer to 200 μg/ml and 188 μl each was distributed to tubes. In the case of using bovine pituitary membrane fraction prepared in (C), it was diluted with the assay buffer to 750 μg/ml and 188 μl each was distributed into tubes. In the case where the membrane fraction of anterior lobes of rat pituitary gland was used, 2 μl of a 0.1 mM compound dissolved in 60% DMSO (dimethylsulfoxide) and 10 μl of 38 nM ^125 I-leuprorelin were added thereto simultaneously. In the case where the membrane fraction of anterior lobes of bovine pituitary gland and the membrane fraction derived from the CHO cells expressing human GnRH receptors were used, 2 μl of a 2 mM compound dissolved in 60% DMSO and 10 μl of 38 nM ^125 I-leuproprelin were added simultaneously. For determining the maximum binding amount, a solution for reaction supplemented with 2 μl of 60% DMSO and 10 μl of 38 nM ^125 I-leuprorelin was prepared. And, for determining the amount of non-specific binding, a solution for reaction supplemented with 2 μl of 100 μM leuprorelin dissolved in 60% DMSO and 10 μl of 38 nM ^125 I-leuprorelin were also prepared simultaneously.
In the cases where membrane fractions of anterior lobes of rat and bovine pituitary were used, reaction was allowed to proceed at 4° C. for 90 minutes, while in the case where the membrane fraction derived from the CHO cells expressing human GnRH receptor was used, reaction was allowed to proceed at 25° C. for 60 minutes. The reaction mixtures were respectively subjected to filtration under sucking with Whatman glass filter (GF-F) processed with polyethyleneimine. After completing the filtration, radioactivity of the ^125 I-leuprorelin remaining on the filter paper was measured with a γ-counter.
By calculation of (TB-SB)/(TB-NSB)×100 (SB: radioactivity obtained when a compound was added, TB: radioactivity for the maximum binding, NSB: radioactivity for the non-specific binding), the binding inhibitory rate of each test compound was determined. Besides, the inhibitory rates were determined by changing the concentrations of test compounds, and the concentration of a test compound inhibiting the specific binding by 50% (IC50 value) was calculated by way of Hill plot.

[4] = cited from earlier work
[5] = tested on: GnRH receptor; conditions: relative to GnRH obtained from natural sources; cited from earlier work

| SMILES | IC50 [3] | other results |
| --- | --- | --- |
| O=C1[C@H]2CCC[C@H]2Nc2ccccc2N1Cc1ccc(Cl)cc1Cl (relative stereo) [compound 37] |  | Percentage (%) of sleeping time relative to control [1]: 145%; Percentage (%) of sleeping time relative to control ([2]; 50 mg/kg orally): 128% |
| CN1c2ccccc2N(Cc2ccccc2)C[C@H]2CCC[C@H]21 (relative stereo) [compound 45] |  | Percentage (%) of sleeping time relative to control ([2]; 20 mg/kg orally): 124% |
| CN1c2ccccc2N(Cc2ccccc2)C(=O)[C@H]2CCC[C@H]21 (relative stereo) [compound 63] |  | Percentage (%) of sleeping time relative to control [1]: 37% |
| CC(=O)N1c2ccccc2N(Cc2ccccc2)C(=O)[C@H]2CCC[C@H]21 (relative stereo) [compound 64] |  | Percentage (%) of sleeping time relative to control [1]: 41% |
| N#Cc1ccc(CN2C(=O)[C@H]3CCC[C@H]3N(C(=O)CN3C(=O)c4ccccc4C3=O)c3ccccc32)cc1 (relative stereo) [compound 210] | 0.4 µM |  |
| CSc1ccc(CN2C(=O)[C@H]3CCC[C@H]3N(C(=O)CN3C(=O)c4ccccc4C3=O)c3ccccc32)cc1 (relative stereo) [compound 212] | 1 µM |  |
| O=C1c2ccccc2C(=O)N1CC(=O)N1c2ccccc2N(Cc2ccc(O)cc2)C(=O)[C@H]2CCC[C@H]21 (relative stereo) [compound 214] | 1 µM |  |
| O=C1c2ccccc2C(=O)N1CC(=O)N1c2ccccc2N(Cc2cccc(O)c2)C(=O)[C@H]2CCC[C@H]21 (relative stereo) [compound 215] | 2 µM |  |
| O=C1c2ccccc2C(=O)N1CC(=O)N1c2ccccc2N(CCc2ccccc2)C(=O)[C@H]2CCC[C@H]21 (relative stereo) [compound 217] | 0.7 µM |  |
| CCNC(=O)[C@@H]1CCCN1C(=O)[C@H](CCCNC(=N)N)NC(=O)[C@H](CC(C)C)NC(=O)[C@@H](CC(C)C)NC(=O)[C@H](Cc1ccc(O)cc1)NC(=O)[C@H](CO)NC(=O)[C@H](Cc1c[nH]c2ccccc12)NC(=O)[C@H](Cc1c[nH]cn1)NC(=O)[C@@H]1CCC(=O)N1 [Leuprorelin acetate] |  | anti-tumor activity against hormone-dependent cancers ([4]; for example, prostatic cancer): shows anti-tumor activity; productivity of testosterone ([4]; repeated administration): reduce the productivity of testosterone to the level of castration |
| O=C1C2CCCC2=Nc2ccccc2N1Cc1ccc(Cl)cc1 (stereo not drawn) [compound 4] |  | Percentage (%) of sleeping time relative to control ([2]; 50 mg/kg orally): 140% |
| O=C1C2CCCC2=Nc2ccccc2N1Cc1ccccc1F (stereo not drawn) [compound 5] |  | Percentage (%) of sleeping time relative to control ([2]; 20 mg/kg orally): 140% |
| O=C1C2CCCC2=Nc2ccccc2N1Cc1ccncc1 (stereo not drawn) [compound 9] |  | Percentage (%) of sleeping time relative to control ([2]; 10 mg/kg orally): 176% |
| Nc1ccc(CN2C(=O)C3CCCC3=Nc3ccccc32)cc1 (stereo not drawn) [compound 17] |  | Percentage (%) of sleeping time relative to control [1]: 33% |
| O=C1N(Cc2ccccc2)c2ccccc2NC2CCCC12Cc1ccccc1 (stereo not drawn) [compound 29] |  | Percentage (%) of sleeping time relative to control [1]: 50% |
| O=C1CC(/C=C/c2ccccc2)Nc2ccccc2N1Cc1ccccc1 (stereo not drawn) [compound 36] | 2 µM |  |
| O=C1[C@H]2CCC[C@H]2N(C(=O)CN2C(=O)c3ccccc3C2O)c2ccccc2N1Cc1ccccc1 (stereo partly drawn) [compound 65] | 14 µM |  |
| O=C1c2ccccc2C(O)N1CC(=O)N1c2ccccc2N(Cc2ccccc2)C[C@H]2CCC[C@H]21 (stereo partly drawn) [compound 66] | 8 µM |  |
| O=C1C2=C(CCCC2)C(=O)N1CC(=O)N1c2ccccc2N(Cc2ccccc2)C(=O)C2CCCC21 (stereo not drawn) [compound 76] | 1 µM |  |
| COc1cccc(CN2C(=O)C3CCCC3N(C(=O)CN3C(=O)c4ccccc4C3=O)c3ccccc32)c1 (stereo not drawn) [compound 111] | 4 µM |  |
| COc1ccc(CN2C(=O)C3CCCC3N(C(=O)CN3C(=O)c4ccccc4C3=O)c3ccccc32)cc1 (stereo not drawn) [compound 112] | 2 µM |  |
| O=C1c2ccccc2C(=O)N1CC(=O)N1c2ccccc2N(c2ccccc2)C(=O)C2CCCC21 (stereo not drawn) [compound 121] | 11 µM |  |
| O=C1C2CCCCC2C(=O)N1CC(=O)N1c2ccccc2N(Cc2ccccc2)C(=O)C2CCCC21 (stereo not drawn) [compound 174] | 5 µM |  |
| O=C1C2CCCCC2C(=O)N1CC(=O)N1c2ccccc2N(Cc2ccccc2)C(=O)[C@H]2CCC[C@H]21 (stereo partly drawn) [compound 175] | 1 µM |  |
| CCNC(=O)[C@@H]1CCCN1C(=O)[C@H](CCCNC(=N)N)NC(=O)[C@H](CC(C)C)NC(=O)[C@@H](CC(C)C)NC(=O)[C@H](Cc1ccc(O)cc1)NC(=O)[C@H](CO)NC(=O)[C@H](Cc1c[nH]c2ccccc12)NC(=O)[C@H](Cc1c[nH]cn1)NC(=O)[C@@H]1CCC(=O)N1 [leuprorelin] |  | affinity to GnRH receptor [5]: higher affinity to GnRH receptor than GnRH obtained from natural sources |
